Measurements from patent US12509421B2, “Preparation and application of deuterated 4-phenyl-4-piperidinols” (priority 2022, dated 2025).
Entries after “also recorded” stand apart in the source; their conditions may differ. Like-named read-outs stand apart in the source and are kept apart here.

Columns and labels:
[1] = Metabolic stability in liver microsomes, rat; details: rat, microsomes, pH 7.4
Method: (§1) The solution B is slowly dropped into solution A, and the pH is adjusted to 7.40±0.05.
(§2) • Control drug: 4 μL Verapamil solution (10 mM) is added with 96 μL DMSO and diluted to 400 μM; • Compound to be tested: 4 μL compound to be tested (10 mM) is added with 96 μL normal saline and diluted to 400 μM.
(§3) The microsomes are stored in the refrigerator at −80° C., thawed at room temperature after being taken out, and mixed gently.
(§4) […] PBS (100 mm, pH=7.4) solution is added to the negative sample. The solution is put into water bath at 37° C. and pre-incubated for 10 minutes; • B) After incubation, 2 μL reference drug or compound to be tested (400 μM) are added into each well to start the reaction.

[2] = Metabolic stability in liver microsomes, human; details: human, microsomes, pH 7.4
Method: as §1, §2, §3, §4

[3] = molecular target: T1, hERG potassium channel (Homo sapiens, UniProt Q12809); details: read-out: hERG IC50; J Med Chem.2013 24; 56 (20): 8019-31; cited from earlier work
[4] = Metabolic stability in liver microsomes, mouse; details: mouse, microsomes, pH 7.4
Method: as §1, §2, §3, §4

[5] = Metabolic stability in liver microsomes, dog; details: dog, microsomes, pH 7.4
Method: as §1, §2, §3, §4

[6] = molecular target: CYP 2C9 (Homo sapiens, UniProt P11712); test: Inhibition of cytochrome P450 enzyme in human liver microsomes, CYP 2C9
[7] = molecular target: CYP 2C19 (Homo sapiens, UniProt P33261); test: Inhibition of cytochrome P450 enzyme in human liver microsomes, CYP 2C19
[8] = molecular target: CYP 2D6 (Homo sapiens, UniProt P10635); test: Inhibition of cytochrome P450 enzyme in human liver microsomes, CYP 2D6
[9] = molecular target: T1, hERG potassium channel; test: hERG potassium channel whole-cell patch clamp (HEK293); assay type: cell-based; design: expressed in transfected cells; host or cells: HEK293 cell line
Description: The rapidly activated potassium channel encoded by human ether-a-go-go-related gene (hERG) is an important ion channel involved in the formation of phase 3 repolarization of myocardial action potential. […] Drug-induced delayed ventricular repolarization may cause fatal arrhythmia-torsade de pointes in some cases. According to statistics, about 25-40% of the lead compounds show different degrees of hERG-related toxicity, and many drugs are withdrawn from the market because they may lead to the risk of QT interval extension. At present, National Medical Products Administration also requires hERG/IKr safety evaluation data before clinical trial application (IND) of new drugs under study. • 1. Whole-cell patch clamp technique is used to study the inhibitory effect of compounds on hERG potassium channels: • 1) the compound to be tested is stored with physiological saline prepared into 10 mM liquid. The test stock solution is diluted with physiological saline into 3 mM, 1 mM and 0.3 mM diluents in turn. […] The old culture medium removed and is washed once with PBS, then added with 1 mL TrypLE™ Express solution and incubated at 37° C. for about 0.5 minutes. When the cells are detached from the bottom of the dish, about 5 ml complete medium preheated is added at 37° C. The cell suspension is gently blown with a straw to separate the aggregated cells. The cell suspension is transferred to a sterile centrifuge tube and centrifuged at 1000 rpm for 5 minutes to collect cells. […] The clamping voltage is depolarized from −80 mV to −50 mV for 0.5 seconds (as leakage current detection), then stepped to 30 mV for 2.5 seconds, and then quickly recovered to −50 mV for 4 seconds, which can excite the tail current of hERG channel. Data are collected repeatedly every 10s to observe the effect of drugs on hERG tail current. 0.5 seconds-50 mV stimulation is used as leakage current detection. The test data are collected by IPA amplifier (Sutter Instrument) and stored in SutterPatch software.
Capillary glass tube is drawn into recording electrode by microelectrode drawing instrument. Under the inverted microscope, the microelectrode manipulator is operated to contact the recording electrode with the cell, and negative pressure suction is given to form a GΩ seal. After the GΩ seal is formed, rapid capacitance compensation is carried out, and then negative pressure is continuously applied to break the cell membrane, forming a whole cell recording mode. Then the slow capacitance is compensated and the film capacitance and series resistance are recorded. No leakage compensation is given.
When the hERG current recorded in the whole cell is stable, the drug is administered, and the next concentration is detected after each drug concentration acts for 5 minutes (or the current is stable), and multiple concentrations are detected for each test compound. The cover glass covered with cells is placed in the recording bath in an inverted microscope, and the test compound and the external liquid containing no compound flowed through the recording bath from low concentration to high concentration by gravity perfusion method, so as to act on the cells, and liquid exchange is carried out by using a vacuum pump during recording. The current detected by each cell in the external fluid without compounds is used as its own control group.
At least two cells are used to detect each concentration independently and repeatedly twice. All electrophysiological tests are conducted at room temperature.
Firstly, the current after each drug concentration and the blank control current are standardized
[formula] followed by the calculation of the inhibition rate
[formula] corresponding to each drug concentration, the average and standard deviation for each concentration, and the semi-inhibition concentration of each compound with the following equation: […]
The dose-dependent effect is nonlinear fitted by the above equation, and IC50 is semi-inhibitory concentration.

T1 sequence (Q12809 whole entry): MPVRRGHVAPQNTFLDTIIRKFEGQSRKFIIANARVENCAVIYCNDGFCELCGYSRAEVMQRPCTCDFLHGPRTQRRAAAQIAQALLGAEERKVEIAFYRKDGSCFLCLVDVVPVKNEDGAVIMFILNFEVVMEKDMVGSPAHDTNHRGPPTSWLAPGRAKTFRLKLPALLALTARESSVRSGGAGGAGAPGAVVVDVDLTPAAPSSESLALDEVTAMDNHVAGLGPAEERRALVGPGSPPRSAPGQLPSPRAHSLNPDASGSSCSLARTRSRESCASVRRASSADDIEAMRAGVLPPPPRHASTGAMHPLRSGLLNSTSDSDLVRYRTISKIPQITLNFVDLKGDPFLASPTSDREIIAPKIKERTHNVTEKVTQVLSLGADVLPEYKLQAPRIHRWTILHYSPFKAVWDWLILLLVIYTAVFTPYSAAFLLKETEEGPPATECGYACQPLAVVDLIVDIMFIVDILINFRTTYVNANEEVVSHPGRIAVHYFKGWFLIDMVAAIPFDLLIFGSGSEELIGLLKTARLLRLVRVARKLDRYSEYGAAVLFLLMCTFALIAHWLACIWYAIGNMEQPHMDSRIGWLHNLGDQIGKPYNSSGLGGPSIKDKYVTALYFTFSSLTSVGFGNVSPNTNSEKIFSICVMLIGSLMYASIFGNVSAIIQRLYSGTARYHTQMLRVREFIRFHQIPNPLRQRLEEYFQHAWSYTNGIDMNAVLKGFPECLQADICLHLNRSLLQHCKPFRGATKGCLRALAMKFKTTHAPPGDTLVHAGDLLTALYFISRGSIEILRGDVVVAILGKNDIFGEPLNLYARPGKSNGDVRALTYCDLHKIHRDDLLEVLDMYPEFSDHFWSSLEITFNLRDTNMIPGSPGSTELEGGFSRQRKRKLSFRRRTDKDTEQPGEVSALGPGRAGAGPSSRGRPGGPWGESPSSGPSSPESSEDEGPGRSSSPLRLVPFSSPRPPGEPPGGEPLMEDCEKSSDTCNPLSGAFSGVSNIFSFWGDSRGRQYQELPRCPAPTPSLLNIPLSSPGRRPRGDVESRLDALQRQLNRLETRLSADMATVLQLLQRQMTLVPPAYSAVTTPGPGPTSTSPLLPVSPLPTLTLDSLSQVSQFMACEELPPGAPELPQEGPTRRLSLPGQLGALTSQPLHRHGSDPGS
Sequence of CYP 2D6 (P10635 whole entry): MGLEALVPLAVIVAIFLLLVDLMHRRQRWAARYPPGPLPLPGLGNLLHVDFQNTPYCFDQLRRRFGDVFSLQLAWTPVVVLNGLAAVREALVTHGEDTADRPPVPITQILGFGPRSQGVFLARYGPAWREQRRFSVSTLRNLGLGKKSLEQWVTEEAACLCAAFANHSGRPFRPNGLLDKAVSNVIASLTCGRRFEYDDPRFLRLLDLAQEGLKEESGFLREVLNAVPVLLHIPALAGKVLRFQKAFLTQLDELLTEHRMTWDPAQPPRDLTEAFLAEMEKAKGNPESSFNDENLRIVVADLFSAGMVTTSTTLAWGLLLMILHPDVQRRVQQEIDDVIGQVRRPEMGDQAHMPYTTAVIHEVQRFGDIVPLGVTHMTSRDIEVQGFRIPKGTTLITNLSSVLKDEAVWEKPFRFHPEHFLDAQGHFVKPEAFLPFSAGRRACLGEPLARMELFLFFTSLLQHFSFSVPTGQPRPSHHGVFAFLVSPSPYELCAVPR
Sequence of CYP 2C19 (P33261 whole entry): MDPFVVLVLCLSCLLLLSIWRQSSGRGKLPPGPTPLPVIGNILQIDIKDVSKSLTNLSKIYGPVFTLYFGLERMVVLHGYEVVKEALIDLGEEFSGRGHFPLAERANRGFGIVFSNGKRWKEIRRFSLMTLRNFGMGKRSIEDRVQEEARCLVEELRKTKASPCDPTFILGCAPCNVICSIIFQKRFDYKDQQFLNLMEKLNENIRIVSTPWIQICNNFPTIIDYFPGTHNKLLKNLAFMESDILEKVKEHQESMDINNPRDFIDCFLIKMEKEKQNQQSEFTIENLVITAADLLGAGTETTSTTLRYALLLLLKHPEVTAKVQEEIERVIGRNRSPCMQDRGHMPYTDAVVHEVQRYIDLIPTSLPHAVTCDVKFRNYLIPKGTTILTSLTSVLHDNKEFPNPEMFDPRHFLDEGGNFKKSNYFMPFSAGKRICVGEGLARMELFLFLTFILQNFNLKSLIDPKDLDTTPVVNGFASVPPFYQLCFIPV
Sequence of CYP 2C9 (P11712 whole entry): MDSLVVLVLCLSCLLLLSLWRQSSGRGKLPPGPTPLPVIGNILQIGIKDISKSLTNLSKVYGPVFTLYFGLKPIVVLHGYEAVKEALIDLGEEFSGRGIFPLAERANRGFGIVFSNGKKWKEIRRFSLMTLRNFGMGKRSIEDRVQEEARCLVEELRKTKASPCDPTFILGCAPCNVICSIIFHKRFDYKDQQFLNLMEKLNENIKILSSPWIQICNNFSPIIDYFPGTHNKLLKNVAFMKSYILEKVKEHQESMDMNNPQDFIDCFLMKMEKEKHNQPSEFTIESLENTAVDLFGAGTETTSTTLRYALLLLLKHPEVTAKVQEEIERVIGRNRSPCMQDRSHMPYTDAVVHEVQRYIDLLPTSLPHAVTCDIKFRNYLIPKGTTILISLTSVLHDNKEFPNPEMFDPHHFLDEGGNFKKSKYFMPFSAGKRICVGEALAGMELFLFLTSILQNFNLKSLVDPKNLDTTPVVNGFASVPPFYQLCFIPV

Structure (SMILES): COc1ccsc1CNCC[C@@]1(c2ccccn2)CCOC2(CCCC2)C1 [TRV-130, reference compound]
- half-life at 2 μM [1]: 1.61 min
- microsomal CLint at 2 μM [1]: 863 µL/min/mg
- half-life at 2 μM [2]: 4.08 min
- microsomal CLint at 2 μM [2]: 340 µL/min/mg
- IC50 [3]: 6.2 µM
- half-life at 2 μM [4]: 1.67 min
- microsomal CLint at 2 μM [4]: 831 µL/min/mg
- half-life at 2 μM [5]: 2.22 min
- microsomal CLint at 2 μM [5]: 624 µL/min/mg
- IC50 [6]: > 50 µM
- IC50 [7]: > 50 µM
- IC50 [8]: 7.17 µM
- IC50 [9]: 6.17 µM
- hERG inhibition grade [9]: moderate inhibitory effects on hERG; also recorded: μM(Moderate intensity inhibition)
